Common to all, as to assay type: cell-based, human
One test has as its system MDA MB468. Briefly: Antiproliferative assay, MDA MB468. As for the experimental part:
(§1) The potential antiproliferative activity of these novel 3-(N-phenylmethyliden)amino-4-imino-3,5-dihydro-4H-chromeno[2,3-d]pyrimidine 10(a-i) and 10-(N-phenylmethyliden)amino-11-imino-11H-naphto[1′,2′:5,6]pyrano[2,3-d]pyrimidine 10(j-l) was evaluated in a panel of eight tumoral cell lines and in diploid skin fibroblasts used as normal cell lines for control. For these antitumor assays, chosen cell lines represent diverse types of human cancer, which are, respectively, human hepatocellular carcinoma (Huh7 D12), human colon adenocarcinoma (Caco2), human breast adenocarcinoma (MDA-MB231), MDA-MB468 for human breast carcinoma which correspond to the Triple Negative Breast Cancer (TNBC), human colon carcinoma (HCT116), PC3 as cell line initiated from bone metastasis of grade IV prostatic adenocarcinoma from a person, MCF7 as breast cancer line isolated from a person and PANC1, as human pancreatic cancer cell line. The potential antiproliferative activity was preliminarily evaluated in vitro at a 25 μM single dose.
(§2) The IC50 was calculated from the full dose-response curve and used as a parameter for the antiproliferative activity of the new compounds.
(§3) Skin diploid fibroblastic cells were provided by BIOPREDIC International Company (Rennes, France). Huh-7D12 (Ref ECACC: 01042712), Caco2 (Ref ECACC: 86010202), MDA-MB-231 (Ref ECACC: 92020424), MDA-MB-468, HCT-116 (Ref ECACC: 91091005), PC3 (Ref ECACC: 90112714), and MCF7 cell lines were obtained from the ECACC collection. PANC1 cell lines, a generous gift of LBAI Inserm 1227 (Brest, France). Cells were grown according to ECACC recommendations in DMEM for Huh-D12, MDA-MB-231, MDA-MB-468 and fibroblast, in EMEM for Caco2, in McCoy’s for HCT-116 and RPMI for PC3 at 37 °C and 5% CO2. All culture media with 10% of FBS, 1% of penicillin-streptomycin and 2 mM glutamine.
(§4) Chemicals were solubilized in DMSO at a concentration of 10 mM (stock solution) and diluted in a culture medium to the desired final concentrations. […] The toxicity test of the chemicals on these cells was as follows: 2 × 10^3 cells for HCT-116 cells or 4 × 10^3 for the other cells were seeded in 96-multi-well plates in triplicate and left for 24 h for attachment, spreading and growing. Then, cells were exposed for 48 h to increasing concentrations of chemicals, ranging from 0.1 μM to 25 μM, in a final volume of 120 μL of culture medium. After 48 h of treatment, cells were washed in PBS and fixed in a cooled 90% ethanol/5% acetic acid solution for 20 min. The nuclei were stained with Hoechst 3342 (B2261 Merck Sigma-Aldrich) and counted. Image acquisition and analysis were performed using automated imaging analysis with a Cellomics Arrayscan VTI/HCS Reader (Thermo/Scientific, Waltham, MA, USA). The survival percentages were calculated as the percentage of cell number after chemical treatment over cell number after DMSO treatment. The IC50 was graphically determined.

A further test deals with MDA MB231. Briefly: Antiproliferative assay, MDA MB231. The method, then:
as §1, §2, §3, §4

For another test, the system named is Huh7 D12. Nature of the test: Antiproliferative assay, Huh7 D12. The method, then: as §1, §2, §3, §4
For another test, the system named is MCF7. Briefly: Antiproliferative assay, MCF7. As for the experimental part:
as §1, §2, §3, §4

Structures are written as SMILES. Where only a bound is given, the exact number is not on record here.

Turning to `COc1cccc2c1Oc1ncn(/N=C/c3ccccc3O)c(=N)c1C2` [10h, (3E) 3-N-(2-Hydroxyphenylmethylidene)amino-4-imino-9-methoxy-3,5-dihydro-4H-chromeno[2,3-d]pyrimidine], the half-inhibitory concentration (IC50) came to 240 nM with MDA MB468 (Homo sapiens, MDA-MB-468, 48 h incubation, average of three assays, standard error ± 0.5 μM); 300 nM in the test on MDA MB231 (Homo sapiens, MDA-MB-231, 48 h incubation, average of three assays, standard error ± 0.5 μM); 230 nM in the test on Huh7 D12 (Homo sapiens, Huh-7D12, 48 h incubation, average of three assays, standard error ± 0.5 μM); 270 nM in the test with MCF7 (Homo sapiens, MCF7, 48 h incubation, average of three assays, standard error ± 0.5 μM). Moreover, the “Selectivity Index (SI) MDA MB468” value in the test on MDA MB468 (SI = IC50 fibroblasts/IC50 on MDA MB468) is above 104.2. For the same molecule, the “Selectivity Index (SI) MDA MB231” value with MDA MB231 (SI = IC50 fibroblasts/IC50 on MDA MB231) was above 83.3. Also, the “Selectivity Index (SI) Huh7 D12” value in the test with Huh7 D12 (SI = IC50 fibroblasts/IC50 on Huh7 D12) is reported as above 108.7. Besides, the “Selectivity Index (SI) MCF7” value in the test on MCF7 (SI = IC50 fibroblasts/IC50 on MCF7) is given as above 92.6.

The term IC50 denotes the point on the concentration scale where inhibition reaches its midpoint.
